Measured values from patent publication US9649294B2, “Glucagon receptor antagonist compounds, compositions containing such compounds and methods of use” (Merck Sharp & Dohme Corp., priority 2013, dated 2017).
Blank lines part the entries; values can stand above or below the compound they belong to.

What was measured:
[1] = Pharmacokinetic study in rhesus monkey; assay type: in vivo, rhesus monkeys; conditions: for MRT / half-life: PK study (IV 0.5 mg/kg, oral 2 mg/kg); for MRT: read-out: MRT, mean residence time; for half-life: read-out: T1/2, terminal half-life (converted)
Description: (§1) Intravenous (IV) PK studies were conducted at a dose of 1 mg/kg in hGCGR mice and rats and 0.5 mg/kg in dogs and rhesus monkeys. The IV doses were formulated in ethanol:PEG400:water (20:30:50 v/v/v). Oral PK studies were conducted at a dose of 2 mg/kg in mice, rats, dogs and monkeys. The oral doses were formulated in ethanol:PEG400:water (20:30:50 v/v/v) for dosing in mice and rats and in 0.5% methylcellulose in dogs and monkeys.
(§2) Plasma was prepared for analysis by protein precipitation with acetonitrile. Plasma concentrations were determined by LC-MS/MS using ABI Sciex API 4000 or 5000 mass spectrometers operated in atmospheric pressure chemical ionization mode with multiple-reaction monitoring.
(§3) Pharmacokinetic parameters were calculated with a non-compartmental model using Watson software (Watson Software, Thermo Fisher, Waltham, Mass., USA). The area under the plasma concentration versus time curve from 0 to 24 h (AUC0-24) was determined using linear trapezoidal interpolation in the ascending slope and logarithmic trapezoidal interpolation in the descending slope. The portion of the AUC from the last measurable concentration to infinity ([…]) was estimated by Ct/kel, where Ct represents the last measurable concentration and kel is the elimination rate constant. The latter was determined from the concentration versus time curve at the terminal phase by linear regression of the semilogarithmic plot. Oral bioavailability (F) was estimated as the AUC0-inf ratio following oral and i.v. administration normalized for differences in dose. The apparent half-life (t1/2) was estimated from the slope of the terminal phase of the log plasma concentration-time curve. MRT, the average time a compound molecule resides in the body, is calculated with the following equation: MRT=AUMC/AUC. In this equation AUMC is the area under the first moment curve and is determined as the area under the curve of a plot of the product of concentration and time versus time. AUC is equal to AUC0-inf.

[2] = Pharmacokinetic study in rat; assay type: in vivo, rats; conditions: for MRT / half-life: PK study (IV 1 mg/kg, oral 2 mg/kg); for MRT: read-out: MRT, mean residence time; for half-life: read-out: T1/2, terminal half-life (converted)
Description: as §1, §2, §3

[3] = Pharmacokinetic study in dog; assay type: in vivo, dogs; conditions: for MRT / half-life: PK study (IV 0.5 mg/kg, oral 2 mg/kg); for MRT: read-out: MRT, mean residence time; for half-life: read-out: T1/2, terminal half-life (converted)
Description: as §1, §2, §3

human glucagon receptor [4] = molecular target: T1, human glucagon receptor (Homo sapiens, UniProt P47871); assay: Glucagon receptor binding assay (125I-glucagon, SPA, CHO cell membranes); conditions: CHO cell membranes expressing cloned human glucagon receptor
T1 construct: expressed in transfected cells; host or cells: CHO cells
T1 sequence (P47871 26-477): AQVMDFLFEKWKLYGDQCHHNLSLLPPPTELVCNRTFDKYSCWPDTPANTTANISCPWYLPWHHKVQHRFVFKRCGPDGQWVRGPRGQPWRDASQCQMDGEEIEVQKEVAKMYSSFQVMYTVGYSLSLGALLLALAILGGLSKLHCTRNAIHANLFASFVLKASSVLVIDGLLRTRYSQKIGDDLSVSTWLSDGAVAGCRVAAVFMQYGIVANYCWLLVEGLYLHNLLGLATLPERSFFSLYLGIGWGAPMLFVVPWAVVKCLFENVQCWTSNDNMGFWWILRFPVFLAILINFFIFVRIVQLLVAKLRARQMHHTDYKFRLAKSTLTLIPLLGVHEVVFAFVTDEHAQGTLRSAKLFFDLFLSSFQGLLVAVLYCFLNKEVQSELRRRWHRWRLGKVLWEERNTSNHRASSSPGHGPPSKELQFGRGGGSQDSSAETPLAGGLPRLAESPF
Description: A stable CHO (Chinese hamster ovary) cell line expressing cloned human glucagon receptor was maintained as described (Chicchi et al. J Biol Chem 272, 7765-9(1997); Cascieri et al. J_Biol Chem 274, 8694-7(1999)). […] After 4-12 hours incubation at room temperature, the radioactivity bound to the cell membranes was determined in a radioactive emission detection counter (Wallac-Microbeta). Data was analyzed using the software program Prism from GraphPad. IC50 values were calculated using non-linear regression analysis assuming single site competition.

human glucagon receptor [5] = molecular target: T1, human glucagon receptor; assay: Inhibition of glucagon-stimulated intracellular cAMP formation; assay type: cell-based; conditions: CHO cells expressing human glucagon receptor; glucagon 250 pM
Description: Exponentially growing CHO cells expressing human glucagon receptor were harvested with the aid of enzyme-free dissociation media (Specialty Media), pelleted at low speed, and re-suspended in the Cell Stimulation Buffer included in the Flash Plate cAMP kit (New England Nuclear, SMP0004A). The adenylate cyclase assay was setup as per manufacturer instructions. Briefly, compounds were diluted from stocks in DMSO and added to cells at a final DMSO concentration of 5%. Cells prepared as above were preincubated in flash plates coated with anti-cAMP antibodies (NEN) in presence of compounds or DMSO controls for 30 minutes, and then stimulated with glucagon (250 pM) for an additional 30 minutes. The cell stimulation was stopped by addition of equal amount of a detection buffer containing lysis buffer as well as ^125I-labeled cAMP tracer (NEN). After 3 hours of incubation at room temperature the bound radioactivity was determined in a liquid scintillation counter (TopCount-Packard Instruments). Basal activity (100% inhibition) was determined using the DMSO control while 0% inhibition was defined at the amount of pmol cAMP produced by 250 pM glucagon.

[6] = Pharmacokinetic study in mouse; assay type: in vivo, hGCGR mice; conditions: for MRT / half-life: PK study (IV 1 mg/kg, oral 2 mg/kg); for MRT: read-out: MRT, mean residence time; for half-life: read-out: T1/2, terminal half-life (converted)
Description: as §1, §2, §3

MRT longer compared to MK-3577 [1]: ~3.4 fold | T1/2 longer compared to MK-3577 [1]: ~2.2 fold | Oral AUCnorm(0-∞) ([1]; oral 2 mg/kg, dose-normalized): 6 µM·kg·h/mg | clearance ([1]; rhesus monkey, plasma, IV 0.5 mg/kg, read-out: Clp, plasma clearance): 3 mL/min/kg | Vd ([1]; rhesus monkey, plasma, IV 0.5 mg/kg, read-out: Vdss, volume of distribution at steady state): 2 L/kg | MRT ([1]; rhesus monkey, plasma): 11 h | half-life ([1]; rhesus monkey, plasma): 11 h | bioavailability ([1]; rhesus monkey, plasma, oral 2 mg/kg vs IV 0.5 mg/kg, read-out: F, oral bioavailability): 47% | MRT compared to MK-3577 [2]: over 3 fold | T1/2 longer compared to MK-3577 [2]: ~1.5 fold | Oral AUCnorm(0-∞) ([2]; oral 2 mg/kg, dose-normalized): 1.2 µM·kg·h/mg | clearance ([2]; plasma, IV 1 mg/kg, read-out: Clp, plasma clearance): 18 mL/min/kg | Vd ([2]; plasma, IV 1 mg/kg, read-out: Vdss, volume of distribution at steady state): 3.2 L/kg | MRT ([2]; plasma): 2.9 h | half-life ([2]; plasma): 2.2 h | bioavailability ([2]; plasma, oral 2 mg/kg vs IV 1 mg/kg, read-out: F, oral bioavailability): 76% | MRT longer compared to MK-3577 [3]: ca. 3.8 fold | T1/2 longer compared to MK-3577 [3]: ca. 3.3 fold | Oral AUCnorm(0-∞) ([3]; oral 2 mg/kg, dose-normalized): 16 µM·kg·h/mg | clearance ([3]; plasma, IV 0.5 mg/kg, read-out: Clp, plasma clearance): 0.63 mL/min/kg | Vd ([3]; plasma, IV 0.5 mg/kg, read-out: Vdss, volume of distribution at steady state): 0.72 L/kg | MRT ([3]; plasma): 20 h | half-life ([3]; plasma): 16 h | bioavailability ([3]; plasma, oral 2 mg/kg vs IV 0.5 mg/kg, read-out: F, oral bioavailability): 30% | IC50 (human glucagon receptor [4]): 0.24 nM | IC50 (human glucagon receptor [5]): 19.2 nM | MRT compared to MK-3577 [6]: ~4.5 fold | T1/2 longer compared to MK-3577 [6]: ~2.9 fold | clearance ([6]; hGCGR, plasma, IV 1 mg/kg, read-out: Clp, plasma clearance): 3.5 mL/min/kg | Vd ([6]; hGCGR, plasma, IV 1 mg/kg, read-out: Vdss, volume of distribution at steady state): 2.2 L/kg | MRT ([6]; hGCGR, plasma): 10 h | half-life ([6]; hGCGR, plasma): 8.2 h | bioavailability ([6]; hGCGR, plasma, oral 2 mg/kg vs IV 1 mg/kg, read-out: F, oral bioavailability): 87% | Oral AUCnorm(0-∞) ([6]; oral 2 mg/kg, dose-normalized): 8.0 µM·kg·h/mg
Structure (SMILES): CCC[C@H](c1ccc(C(=O)NCCC(=O)O)cc1)[C@H](c1ccc(OC(F)(F)F)cc1)c1c[nH]c2c(F)cc(Cl)cc12 [Example 1, 3-(4-((1R,2S)-1-(5-Chloro-7-Fluoro-1H-Indol-3-yl)-1-(4-(Trifluoromethoxy)Phenyl)Pentan-2-yl)Benzamido)Propanoic Acid]

MRT ([1]; rhesus monkey, plasma): 3.2 h | half-life ([1]; rhesus monkey, plasma): 5.1 h | MRT ([2]; plasma): 0.9 h | half-life ([2]; plasma): 1.4 h | MRT ([3]; plasma): 5.2 h | half-life ([3]; plasma): 4.9 h | MRT ([6]; hGCGR, plasma): 2.2 h | half-life ([6]; hGCGR, plasma): 2.8 h
Structure (SMILES): CCC[C@H](c1ccc(C(=O)NCCC(=O)O)cc1)[C@H](c1ccc(Cl)cc1)c1c[nH]c2c(F)cc(C)cc12 [MK3577, reference compound]
